Laboratory results published in patent US20260202397A1, “POTENCY ASSAY FOR PHARMACEUTICAL PRODUCTS” (REPAIRON MUSCLE UG, priority 2022, published 2026).
≈ marks a conversion by molar mass, not a printed value. Entries after “also recorded” stand apart in the source; their conditions may differ.

How the values were obtained:
[1] = system: BioEngineered Neuronal Organoids (BENOs); experiment: Multi-electrode array (MEA) recording of BENO network activity; assay type: cell-based, human; conditions: for Burst Frequency (Hz) / Interspike Interval in a burst / Network Burst (NB) Frequency / Number of Active Electrodes / Weighted Mean Firing Rate (Hz) / Burst Frequency (Hz), effect vs reference BENO / Interspike Interval in a burst (s), effect vs reference BENO / Network Burst (NB) Frequency, effect vs reference BENO / Number of Active Electrodes, effect vs reference BENO / Weighted Mean Firing Rate (Hz), effect vs reference BENO: CNQX 15 μM; for Burst frequency, change in words / Weighted mean firing rate, change in words: text and figure legend
Description: BioEngineered Neuronal Organoids (BENOs) were generated in line with the BENO generation protocol provided in Zafeiriou et al. (Nature Communications, 2020, 11:3791, https://doi.org/10.1038/s41467-020-17521-w).
The method used for this illustrative example was a multi-electrode array (MEA) recording. In particular, six-well plates with 64 platinum microelectrodes arrays per well (0.04 MQ/microelectrode, 30 μm microelectrode diameter, 200 μm spacing) were coated with Matrigel™ 1:120 diluted in PBS for 1 h at room temperature prior seeding. One or two slices (thickness: 300 μm) were placed into a MEA well and immobilized by a concentrically coiled tungsten ring. 10-15 min recordings/2 h were performed every other day for up to 60 days using a Maestro pro MEA system (Axion Biosystems). Data recordings were automatically scheduled with the Axion Software (AxIS Navigator) using the manufacturer's Spontaneous Neural Configuration. Data analysis was performed using the manufacturer's standalone tools, Neural Metric Tool, and AxIS Metric Plotting Tool (Axion Biosystems). […] Spike bursts were identified using an ISI threshold requiring a minimum number of five spikes with a maximum ISI of 100 ms. Network Bursts (NB) were identified by an envelope algorithm with a threshold of 1.25, minimum IBI interval of 100 ms, 75% burst inclusion with a minimum of 10% active electrodes.

[2] = Pirfenidone IC50 in vitro
[3] = system: Engineered connective tissues (ECT); experiment: ECT contraction by pole deflection analysis (reference ECT +/- TGF-β1); assay type: cell-based, human; conditions: 5 ng/ml TGF-β1 applied at day 4, day 10 of the drug effect testing phase (absolute day 13), 6 technical replicates
Description: The general experimental procedure was identical for all used cells, including primary fibroblasts and iPSC-StC. Supporting information in view of the ECT model, in particular its generation, may also be found in Santos et al. (2021, Fibroblast Derived Human Engineered Connective Tissue for Screening Applications. J. Vis. Exp. e62700, doi: 10.3791/62700, PMID: 34487119), Santos et al. (2022, Using different geometries to modulate the cardiac fibroblast phenotype and the biomechanical properties of engineered connective tissues. Biomater Adv. 139:213041, PMID: 35909053), and EP20188364. In particular, acid solubilized, collagen type 1 was mixed 1:1 with 2× DMEM containing 20% fetal calf serum and antibiotics. […]
Pole deflection measurement and platforms are well-established in the art, cf. e.g. WO2017/207431 (also granted as DE 10 2016 110 328 B3). […] Pole deflection as a function of ECT compaction was calculated as follows: 100×(pole distanceday 0-pole distanceday x)/pole distanceday 0.
Reference ECT were analyzed, which were treated with a drug solvent in absence or presence of TGF-β1, with TGF-β1 application serving as additional reference with respect to pro-fibrotic drug characterization. […]

[4] = system: Engineered connective tissues (ECT); experiment: ECT stiffness (Young's modulus) by ultimate tensile testing; assay type: cell-based, human; conditions: 5 ng/ml TGF-β1, day 10 of the drug effect testing phase (absolute day 13), 8 replicates
Method: Reference ECT were generated and treated similar as described herein in Example 1. In contrast to the pole deflection analysis disclosed in Example 1 herein, 8 ECT were harvested for the ultimate tensile testing at the moment when the plateau was reached and before a drug solvent was applied with or without TGF-β1. Residual ECT were cultured for further 10 days. Then, macroscopic images were taken from the ECT on the poles to estimate their cross-sectional areas based on the observed ECT thicknesses. Ultimate tensile testing was performed with a dynamic mechanical analyzer (DMA). Therefore, ECT were loaded onto two hooks clamped to a DMA in a 37° C. tempered organ bath filled with PBS. Then, uniaxial stretch at a constant linear rate of approximately 1% (0.03 mm/s) was applied until the ECT ruptured. The recorded force traces were converted into stress-strain curves. The Young's modulus representing the stiffness of the ECT was analyzed by determining the slope of the linear part of curve within the elastic region (FIG. 3A). All measurements were performed in 8 replicates. […]

[5] = BENO day 50 to day 60, 10 min treatment, PIC 58 μM, 4 tissues
[6] = BENO day 60, 10 min treatment, PIC 58 μM, threshold 2× SD
[7] = BENO day 60, treated vs reference
[8] = BENO day 60, treated vs reference, listed as Picrotoxin

Compound	Burst Frequency (Hz) [1, 5]	Interspike Interval in a burst [1, 5]	Network Burst (NB) Frequency [1, 5]	Number of Active Electrodes [1, 5]	Weighted Mean Firing Rate (Hz) [1, 5]	Burst Frequency (Hz), effect vs reference BENO [1, 6]	Interspike Interval in a burst (s), effect vs reference BENO [1, 6]	Network Burst (NB) Frequency, effect vs reference BENO [1, 6]	Number of Active Electrodes, effect vs reference BENO [1, 6]	Weighted Mean Firing Rate (Hz), effect vs reference BENO [1, 6]	Network burst frequency, change in words [1, 7]	Burst frequency, change in words [1, 7]	Weighted mean firing rate, change in words [1, 7]	also measured
N#Cc1cc2[nH]c(=O)c(=O)[nH]c2cc1[N+](=O)[O-] [CNQX, Cyanquixalin]	0.02 Hz	0.03 s	0	2	0.6 Hz	↔ (<2SD change)	↑ (>2SD increase)	↓ (>2SD decrease)	↓ (>2SD decrease)	↓ (>2SD decrease)	decrease	reduced to the predetermined threshold of 2× SD, though not exceeding it; also recorded: decrease; also recorded: reduced	decrease; also recorded: reduced	Interspike interval in a burst, change in words ([1]; BENO day 60, after treatment): higher
C=C(C)[C@@H]1[C@H]2OC(=O)[C@@H]1[C@]1(O)C[C@H]3OC34C(=O)O[C@H]2[C@@]41C.CC(C)(O)[C@@H]1[C@H]2OC(=O)[C@@H]1[C@]1(O)C[C@H]3OC34C(=O)O[C@H]2[C@@]41C (stereo partly shown) [PIC, Picrotoxin]	0.2 Hz	0.02 s	0.09	23	4.7 Hz	↑ (>2SD increase)	↔ (<2SD change)	↑ (>2SD increase)	↔ (<2SD change)	↑ (>2SD increase)	increased	increase	increase	Interspike Interval in a NB [1, 5]: 0.002 s; NB Duration [1, 5]: 1.4 ± 0.4 s; NB percentage [1, 5]: 43 ± 42; Spontaneous activity, change in words ([1]; BENO day 60): increased; Interspike Interval in a NB (s), effect vs reference BENO [1, 6]: ↔ (<2SD change); NB Duration (s), effect vs reference BENO [1, 6]: ↑ (>2SD increase); NB percentage, effect vs reference BENO [1, 6]: ↔ (<2SD change); Network burst duration (network burst complexity), change in words [1, 7]: decreased; Burst frequency, change in words [1, 8]: increases; Weighted mean firing rate, change in words [1, 8]: increased
Cc1ccc(=O)n(-c2ccccc2)c1 [Pirfenidone]														IC50 [2]: 430 µg/mL (≈ 2320 µM)
TGF-B1: pro-fibrotic cytokine applied at 5 ng/ml to reference ECT														Contraction (%) [3]: 39.4%; Young's modulus (kPa) [4]: 76.4 kPa
